According to ChEMBL document CHEMBL3046562, “Pharmacological Effects of Imidacloprid and Its Related Compounds on the Nicotinic Acetyicholine Receptor with Its Ion Channel from the Torpedo Electric Organ” (J Pestic Sci, 1995):
Activity calls are given as the source filed them. The rule behind the calls is not given here.

Columns and labels:
[1] = Displacement of [3H]alpha-BGT from nAChR in Torpedo nobiliana electric organs membranes by scintillation counting method
[2] = molecular target: Acetylcholine receptor subunit alpha (Torpedo californica) (UniProt P02710); assay: Increase in [3H]PCP binding to nAChR in Torpedo nobiliana electric organs membranes by scintillation counting method; type: tissue-based; details: Electric organ
[3] = molecular target: Acetylcholine receptor subunit alpha (Torpedo californica) (UniProt P02710); assay: Displacement of [3H]PCP from nAChR in Torpedo nobiliana electric organs membranes at 300 uM by scintillation counting method; type: tissue-based; details: Electric organ
[4] = molecular target: Acetylcholine receptor subunit alpha (Torpedo californica) (UniProt P02710); assay: Increase in [3H]PCP binding to nAChR in Torpedo nobiliana electric organs membranes at 1 to 3 uM by scintillation counting method; type: tissue-based; details: Electric organ
[5] = molecular target: Acetylcholine receptor subunit alpha (Torpedo californica) (UniProt P02710); assay: Displacement of [3H]alpha-BGT from nAChR in Torpedo nobiliana electric organs membranes at 1000 uM by scintillation counting method; type: tissue-based; details: Electric organ
[6] = molecular target: Acetylcholine receptor subunit alpha (Torpedo californica) (UniProt P02710); assay: Displacement of [3H]alpha-BGT from nAChR in Torpedo nobiliana electric organs membranes at 300 uM by scintillation counting method; type: tissue-based; details: Electric organ
[7] = molecular target: Acetylcholine receptor subunit alpha (Torpedo californica) (UniProt P02710); assay: Displacement of [3H]PCP from nAChR in Torpedo nobiliana electric organs membranes at 1000 uM by scintillation counting method; type: tissue-based; details: Electric organ
[8] = molecular target: Acetylcholine receptor subunit alpha (Torpedo californica) (UniProt P02710); assay: Displacement of [3H]PCP from nAChR in Torpedo nobiliana electric organs membranes assessed as [3H]PCP binding level at 300 uM in presence of 100 uM carbachol by scintillation counting method relative to untreated control; type: tissue-based; details: Electric organ
[9] = molecular target: Acetylcholine receptor subunit alpha (Torpedo californica) (UniProt P02710); assay: Displacement of [3H]PCP from nAChR in Torpedo nobiliana electric organs membranes assessed as [3H]PCP binding level at 300 uM by scintillation counting method relative to untreated control; type: tissue-based; details: Electric organ
[10] = molecular target: Acetylcholine receptor subunit alpha (Torpedo californica) (UniProt P02710); assay: Displacement of [3H]PCP from nAChR in Torpedo nobiliana electric organs membranes assessed as [3H]PCP binding level at 300 uM pre-treated with 0.5 uM alpha-bungarotoxin by scintillation counting method relative to untreated control; type: tissue-based; details: Electric organ
[11] = molecular target: Acetylcholine receptor subunit alpha (Torpedo californica) (UniProt P02710); assay: Displacement of [3H]PCP from nAChR in Torpedo nobiliana electric organs membranes assessed as [3H]PCP binding level at 500 uM in presence of 100 uM carbachol by scintillation counting method relative to untreated control; type: tissue-based; details: Electric organ
[12] = molecular target: Acetylcholine receptor subunit alpha (Torpedo californica) (UniProt P02710); assay: Displacement of [3H]PCP from nAChR in Torpedo nobiliana electric organs membranes assessed as [3H]PCP binding level at 500 uM by scintillation counting method relative to untreated control; type: tissue-based; details: Electric organ
[13] = molecular target: Acetylcholine receptor subunit alpha (Torpedo californica) (UniProt P02710); assay: Displacement of [3H]PCP from nAChR in Torpedo nobiliana electric organs membranes assessed as [3H]PCP binding level at 1000 uM in presence of 100 uM carbachol by scintillation counting method relative to untreated control; type: tissue-based; details: Electric organ
[14] = molecular target: Acetylcholine receptor subunit alpha (Torpedo californica) (UniProt P02710); assay: Displacement of [3H]PCP from nAChR in Torpedo nobiliana electric organs membranes assessed as [3H]PCP binding level at 1000 uM by scintillation counting method relative to untreated control; type: tissue-based; details: Electric organ
[15] = molecular target: Acetylcholine receptor subunit alpha (Torpedo californica) (UniProt P02710); assay: Displacement of [3H]PCP from nAChR in Torpedo nobiliana electric organs membranes assessed as [3H]PCP binding level at 1000 uM pre-treated with 0.5 uM alpha-bungarotoxin by scintillation counting method relative to untreated control; type: tissue-based; details: Electric organ

Chain of Acetylcholine receptor subunit alpha (Torpedo californica) (P02710 whole entry): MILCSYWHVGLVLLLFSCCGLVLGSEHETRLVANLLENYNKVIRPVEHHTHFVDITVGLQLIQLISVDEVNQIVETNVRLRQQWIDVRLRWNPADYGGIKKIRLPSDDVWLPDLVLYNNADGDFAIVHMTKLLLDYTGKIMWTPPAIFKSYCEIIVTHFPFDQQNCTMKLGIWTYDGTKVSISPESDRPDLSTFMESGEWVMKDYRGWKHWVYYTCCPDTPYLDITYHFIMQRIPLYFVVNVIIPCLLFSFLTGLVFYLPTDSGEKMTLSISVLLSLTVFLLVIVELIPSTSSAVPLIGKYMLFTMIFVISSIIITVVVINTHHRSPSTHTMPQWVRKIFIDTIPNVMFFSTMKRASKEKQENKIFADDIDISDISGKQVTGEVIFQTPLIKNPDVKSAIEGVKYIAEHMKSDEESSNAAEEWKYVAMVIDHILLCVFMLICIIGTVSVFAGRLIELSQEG

Q: Which results are given for `C[N+](C)(C)CCOC(N)=O` [CARBACHOL]?
A: IC50 [1]: 7.64 µM; Activity [2]: Active

Q: With `COc1cc2c3cc1Oc1cc(ccc1O)C[C@@H]1c4c(cc(OC)c(O)c4Oc4ccc(cc4)C[C@@H]3N(C)CC2)CC[N+]1(C)C` as the molecule, how does the inhibition [3] read?
A: The inhibition was 91.3%.

Q: And the Activity [4]?
A: Its Activity is 160%.

Q: And the Activity [2]?
A: Its Activity is “Active”.

Q: Which Activity [2] does the source give for `C[N+]1(C)CCN(c2ccccc2)CC1` here?
A: Its Activity is “Active”.

Q: With `c1ccc(C2(N3CCCCC3)CCCCC2)cc1` as the molecule, how does the inhibition [5] read?
A: Its inhibition is 3.2%.

Q: With `CCC[C@H]1CCCCN1` as the molecule, how does the Activity [2] read?
A: Its Activity is “Active”.

Q: For `O=C1N(Cc2ccccc2)C2C[S+]3CCCC3C2N1Cc1ccccc1` (configuration not stated), which inhibition [3] is on record?
A: Its inhibition is 5.93%.

Q: What about the inhibition [6] of the same molecule?
A: Its inhibition is 5.7%.

Q: What about the inhibition [7] of the same molecule?
A: The inhibition was 59.5%.

Q: Which Activity [2] does the source give for `CN1CCC[C@@H]1c1cccnc1` here?
A: The Activity was “Active”.

Q: With `CN(C)CCCN1c2ccccc2Sc2ccc(Cl)cc21` as the molecule, how does the inhibition [5] read?
A: The inhibition was 7.15%.

Q: For `CSCCN1CCN/C1=C\[N+](=O)[O-]`, which Activity [8] is on record?
A: Its Activity is 830%.

Q: What about the Activity [9] of the same molecule?
A: The Activity was 181%.

Q: With `CNC1(C)C2CCC(C2)C1(C)C` (configuration not stated) as the molecule, how does the inhibition [5] read?
A: The inhibition was 0%.

Q: With `c1csc(C2(N3CCCCC3)CCCCC2)c1` as the molecule, how does the inhibition [6] read?
A: Its inhibition is 0.91%.

Q: With `CN1CCC[C@H]1c1cccnc1` [NICOTINE] as the molecule, how does the IC50 [1] read?
A: The IC50 was 23.1 µM.

Q: And the Activity [2]?
A: Its Activity is “Active”.

Q: Which inhibition [5] does the source give for `CNC1(c2ccccc2Cl)CCCCC1=O` (configuration not stated) here?
A: The inhibition was 0.1%.

Q: With `CN1[C@@H](CC(=O)c2ccccc2)CCC[C@H]1C[C@H](O)c1ccccc1` as the molecule, how does the inhibition [5] read?
A: The inhibition was 0%.

Q: With `C/C(=N\C#N)N(C)Cc1ccc(Cl)nc1` as the molecule, how does the Activity [8] read?
A: Its Activity is 93.3%.

Q: What about the Activity [9] of the same molecule?
A: The Activity was 221%.

Q: What about the Activity [10] of the same molecule?
A: Its Activity is 104%.

Q: For `O=[N+]([O-])/N=C1\NCCN1Cc1ccc(Cl)nc1` [IMIDACLOPRID], which Activity [8] is on record?
A: Its Activity is 92.4%.

Q: And the Activity [9]?
A: The Activity was 287%.

Q: And the IC50 [1]?
A: The IC50 was 1060 µM.

Q: And the Activity [10]?
A: Its Activity is 108%.

Q: For `CN(C)C1CSSC1`, which Activity [2] is on record?
A: Its Activity is “Active”.

Q: Which results are given for `c1cncc([C@@H]2CCCCN2)c1` [ANABASINE]?
A: IC50 [1]: 193 µM; Activity [2]: Active

Q: With `O=c1cccc2n1C[C@@H]1CNC[C@H]2C1` as the molecule, how does the Activity [2] read?
A: Its Activity is “Active”.

Q: Which inhibition [6] does the source give for `CCN(Cc1ccc(Cl)nc1)/C(=C/[N+](=O)[O-])NC` here?
A: Its inhibition is 2.39%.

Q: What about the Activity [11] of the same molecule?
A: Its Activity is 607%.

Q: And the Activity [12]?
A: Its Activity is 142%.

Q: What does the source list for `O=[N+]([O-])C=C1NCCCS1`?
A: IC50 [1]: 1590 µM; Activity [13]: 762%; Activity [14]: 439%; Activity [15]: 112%

Q: What does the source list for `O=[N+]([O-])/C=C1\NCCN1Cc1ccc(Cl)nc1`?
A: Activity [8]: 94.6%; Activity [9]: 461%; Activity [10]: 142%
